Results taken from ChEMBL document CHEMBL1177740, “Steroidal saponins from two species of Dracaena” (J Nat Prod, 2010).

Columns and labels:
HT-29 = assay: Cytotoxicity against human HT-29 cells by MTT assay; type: functional, cell-based
HCT-116 = assay: Cytotoxicity against human HCT116 cells by MTT assay; type: functional, cell-based

Structure (SMILES) | IC50 (HT-29) [µM] | IC50 (HCT-116) [µM]
C=C1CO[C@]2(O[C@H]3C[C@H]4[C@@H]5CC=C6C[C@@H](O)C[C@@H](O[C@@H]7O[C@H](C)[C@H](O)[C@H](O[C@@H]8O[C@@H](C)[C@H](O)[C@@H](O)[C@H]8O)[C@H]7O[C@@H]7OC[C@@H](O)[C@H](O)[C@H]7O)[C@]6(C)[C@H]5CC[C@]4(C)[C@H]3[C@@H]2C)[C@@H](O)[C@H]1O[C@@H]1OC[C@H](O)[C@H](O)[C@H]1O [DEISTELIANOSIDE B] | 70.7 | 21.2
C[C@@H]1CC[C@]2(OC1)O[C@H]1C[C@H]3[C@@H]4CC=C5C[C@@H](O[C@@H]6O[C@H](CO)[C@@H](O)[C@H](O[C@@H]7O[C@@H](C)[C@H](O)[C@@H](O)[C@H]7O)[C@H]6O[C@@H]6O[C@@H](C)[C@H](O)[C@@H](O)[C@H]6O)CC[C@]5(C)[C@H]4CC[C@]3(C)[C@@]1(O)[C@@H]2C | 1.67 | 2.04
CC(=O)O[C@H]1C(=O)[C@@]2(C)[C@H]([C@H](OC(=O)c3ccccc3)[C@]3(O)C[C@H](OC(=O)[C@H](O)[C@@H](NC(=O)c4ccccc4)c4ccccc4)C(C)=C1C3(C)C)[C@]1(OC(C)=O)CO[C@@H]1C[C@@H]2O [PACLITAXEL] | 0.0014 | 0.00321
CC(=O)OC[C@H]1O[C@@H](O[C@H]2CC[C@@]3(C)C(=CC[C@@H]4[C@@H]3CC[C@@]3(C)[C@H]4C[C@@H]4O[C@@]5(CC[C@@H](C)CO5)[C@@H](C)[C@@]43O)C2)[C@H](O[C@@H]2O[C@@H](C)[C@H](O)[C@@H](O)[C@H]2O)[C@@H](O[C@@H]2O[C@@H](C)[C@H](O)[C@@H](O)[C@H]2O)[C@@H]1O [ARBOREASAPONIN A] | 8.54 | 7.6
C[C@@H]1CC[C@@]2(OC1)O[C@H]1C[C@H]3[C@@H]4CC=C5C[C@@H](O[C@@H]6O[C@H](CO)[C@@H](O)[C@H](O[C@@H]7O[C@@H](C)[C@H](O)[C@@H](O)[C@H]7O)[C@H]6O)CC[C@]5(C)[C@H]4CC[C@]3(C)[C@@]1(O)[C@@H]2C [MANIOSIDE A] | 56.2 | 43
C=C1CO[C@@]2(O[C@H]3C[C@H]4[C@@H]5CC=C6C[C@@H](O)C[C@@H](O[C@@H]7OC[C@H](O)[C@H](O[C@@H]8OC[C@@H](O)[C@H](O)[C@H]8O[C@@H]8O[C@@H](C)[C@H](O)[C@@H](O)[C@H]8O)[C@H]7O)[C@]6(C)[C@H]5CC[C@]4(C)[C@H]3[C@@H]2C)[C@@H](O)[C@H]1O[C@@H]1OC[C@H](O)[C@H](O)[C@H]1O | 29.5 | 29
C[C@@H]1O[C@@H](O[C@H]2[C@H](O[C@H]3CC[C@@]4(C)C(=CC[C@@H]5[C@@H]4CC[C@@]4(C)[C@H]5C[C@@H]5O[C@@]6(C[C@@H](O)[C@@H](C)CO6)[C@@H](C)[C@@]54O)C3)O[C@H](CO)[C@@H](O)[C@@H]2O[C@@H]2O[C@@H](C)[C@H](O)[C@@H](O)[C@H]2O)[C@H](O)[C@H](O)[C@H]1O [ARBOREASAPONIN B] | 100 | 100
